Data from patent US10301295B2, “Herbicidal compounds” (Syngenta Participations AG, priority 2014, dated 2019).
Like-named read-outs stand apart in the source and are kept apart here.

Experiments:
Test in all cases: Glasshouse assay for herbicidal activity, pre-/post-emergence (percentage phytotoxicity)
Type in all cases: in vivo
[1] = system: Alopecurus myosuroides (ALOMY); details: Alopecurus myosuroides, Rate 250 g/ha, 100%=total damage, 0%=no damage
Protocol: (§1) Seeds of a variety of monocotyledonous and dicotyledonous test plants are sown in standard soil in pots. The plants are cultivated for one day (for pre-emergence) or for about 12 days (for post-emergence) under controlled conditions in a glasshouse (warm climate species at 24/18° C., cool climate species at 20/16° C., both at day/night; 16 hours light; 65% humidity). The test plants are then grown on, in a glasshouse (greenhouse) under controlled conditions (warm climate species at 24/18° C., cool climate species at 20/16° C., both at day/night; 16 hours light; 65% humidity) and are watered twice daily. 15 days after application of the test herbicide (15DAA) (for post-emergence), and 20 days after application of the test herbicide (20DAA) (for pre-emergence), the test plants are evaluated visually, and an assessed percentage phytotoxicity score is given for each herbicidal application on each plant species (with 100%=total damage to plant; 0%=no damage to plant). The plant species tested are as follows: Alopecurus myosuroides (ALOMY), Avena fatua (AVEFA), Lolium perenne (LOLPE), Echinochloa crus-galli (ECHCG).

Avena fatua (AVEFA) = details: Avena fatua, Rate 250 g/ha, 100%=total damage, 0%=no damage
Protocol: as §1

[2] = system: Echinochloa crus-galli (ECHCG); details: Echinochloa crus-galli, Rate 250 g/ha, 100%=total damage, 0%=no damage
Protocol: as §1

Lolium perenne (LOLPE) = details: Lolium perenne, Rate 250 g/ha, 100%=total damage, 0%=no damage
Protocol: as §1

[3] = 360 h, post-emergence, visual assessment 15 DAA, read-out: Post-emergence herbicidal activity (percentage phytotoxicity), ALOMY POST
[4] = 480 h, pre-emergence, visual assessment 20 DAA, read-out: Pre-emergence herbicidal activity (percentage phytotoxicity), ALOMY PRE
[5] = post-emergence, 360 h, post-emergence, visual assessment 15 DAA, read-out: Post-emergence herbicidal activity (percentage phytotoxicity), AVEFA POST
[6] = pre-emergence, 480 h, pre-emergence, visual assessment 20 DAA, read-out: Pre-emergence herbicidal activity (percentage phytotoxicity), AVEFA PRE
[7] = post-emergence, 360 h, post-emergence, visual assessment 15 DAA, read-out: Post-emergence herbicidal activity (percentage phytotoxicity), ECHCG POST
[8] = pre-emergence, 480 h, pre-emergence, visual assessment 20 DAA, read-out: Pre-emergence herbicidal activity (percentage phytotoxicity), ECHCG PRE
[9] = post-emergence, 360 h, post-emergence, visual assessment 15 DAA, read-out: Post-emergence herbicidal activity (percentage phytotoxicity), LOLPE POST
[10] = pre-emergence, 480 h, pre-emergence, visual assessment 20 DAA, read-out: Pre-emergence herbicidal activity (percentage phytotoxicity), LOLPE PRE

Q: What does the source list for `Cc1cc(OCC(F)(F)F)cc(C)c1C1C(=O)CC(CCNC(=O)C2=NOC(C)(C)C2)C1=O` (stereo not drawn) [Compound A115]?
A: pest or weed control at 250 g/ha [1, 3]: 100%; pest or weed control at 250 g/ha [1, 4]: 100%; pest or weed control at 250 g/ha (Avena fatua (AVEFA); [5]): 100%; pest or weed control at 250 g/ha (Avena fatua (AVEFA); [6]): 80%; pest or weed control at 250 g/ha [2, 7]: 100%; pest or weed control at 250 g/ha [2, 8]: 70%; pest or weed control at 250 g/ha (Lolium perenne (LOLPE); [9]): 90%; pest or weed control at 250 g/ha (Lolium perenne (LOLPE); [10]): 90%

Q: Which pest or weed control at 250 g/ha [1, 3] does the source give for `CC#Cc1cc(C)c(C2C(=O)CC(CCNc3ccc(C#N)cn3)C2=O)c(C)c1` (stereo not drawn) [Compound A112] here?
A: 100%

Q: And the pest or weed control at 250 g/ha [1, 4]?
A: 100%

Q: And the pest or weed control at 250 g/ha (Avena fatua (AVEFA); [5])?
A: 100%

Q: What about the pest or weed control at 250 g/ha (Avena fatua (AVEFA); [6]) of the same molecule?
A: 90%

Q: What about the pest or weed control at 250 g/ha [2, 7] of the same molecule?
A: 100%

Q: And the pest or weed control at 250 g/ha [2, 8]?
A: 100%

Q: What about the pest or weed control at 250 g/ha (Lolium perenne (LOLPE); [9]) of the same molecule?
A: 100%

Q: What about the pest or weed control at 250 g/ha (Lolium perenne (LOLPE); [10]) of the same molecule?
A: 90%

Q: With `CNC(=O)NCCC1CC(=O)C(c2c(C)cc(C)cc2C)C1=O` (stereo not drawn) [Compound A94, 1-[2-[2,4-dioxo-3-(2,4,6-trimethylphenyl)cyclopentyl]ethyl]-3-methyl-urea] as the molecule, how does the pest or weed control at 250 g/ha [1, 3] read?
A: 60%

Q: What about the pest or weed control at 250 g/ha [1, 4] of the same molecule?
A: 80%

Q: What about the pest or weed control at 250 g/ha (Avena fatua (AVEFA); [5]) of the same molecule?
A: 90%

Q: What about the pest or weed control at 250 g/ha (Avena fatua (AVEFA); [6]) of the same molecule?
A: 60%

Q: What about the pest or weed control at 250 g/ha [2, 7] of the same molecule?
A: 90%

Q: What about the pest or weed control at 250 g/ha [2, 8] of the same molecule?
A: 70%

Q: And the pest or weed control at 250 g/ha (Lolium perenne (LOLPE); [9])?
A: 80%

Q: And the pest or weed control at 250 g/ha (Lolium perenne (LOLPE); [10])?
A: 100%

Q: Which pest or weed control at 250 g/ha [1, 3] does the source give for `Cc1cc(C)c(C2C(=O)CC(CCNC(=O)Nc3ccncn3)C2=O)c(C)c1` (stereo not drawn) [Compound A95] here?
A: 70%

Q: And the pest or weed control at 250 g/ha [1, 4]?
A: 80%

Q: What about the pest or weed control at 250 g/ha (Avena fatua (AVEFA); [5]) of the same molecule?
A: 70%

Q: And the pest or weed control at 250 g/ha (Avena fatua (AVEFA); [6])?
A: 20%

Q: And the pest or weed control at 250 g/ha [2, 7]?
A: 70%

Q: And the pest or weed control at 250 g/ha [2, 8]?
A: 70%

Q: What about the pest or weed control at 250 g/ha (Lolium perenne (LOLPE); [9]) of the same molecule?
A: 60%

Q: And the pest or weed control at 250 g/ha (Lolium perenne (LOLPE); [10])?
A: 70%

Q: For `Cc1cc(C)c(C2C(=O)CC(CCNc3ncc(F)cn3)C2=O)c(C)c1` (stereo not drawn) [Compound A121], which pest or weed control at 250 g/ha [1, 3] is on record?
A: 100%

Q: And the pest or weed control at 250 g/ha [1, 4]?
A: 100%

Q: What about the pest or weed control at 250 g/ha (Avena fatua (AVEFA); [5]) of the same molecule?
A: 100%

Q: What about the pest or weed control at 250 g/ha (Avena fatua (AVEFA); [6]) of the same molecule?
A: 100%

Q: And the pest or weed control at 250 g/ha [2, 7]?
A: 100%

Q: What about the pest or weed control at 250 g/ha [2, 8] of the same molecule?
A: 100%

Q: What about the pest or weed control at 250 g/ha (Lolium perenne (LOLPE); [9]) of the same molecule?
A: 90%

Q: And the pest or weed control at 250 g/ha (Lolium perenne (LOLPE); [10])?
A: 100%

Q: `Cc1cc(C)c(C2C(=O)C[C@@H](CCNC(=O)C3=NOC(C)(C)C3)C2=O)c(C)c1` (stereo partly drawn) [Compound A102] was tested. Which pest or weed control at 250 g/ha [1, 3] did it give?
A: 100%

Q: And the pest or weed control at 250 g/ha [1, 4]?
A: 100%

Q: And the pest or weed control at 250 g/ha (Avena fatua (AVEFA); [5])?
A: 100%

Q: And the pest or weed control at 250 g/ha (Avena fatua (AVEFA); [6])?
A: 90%

Q: What about the pest or weed control at 250 g/ha [2, 7] of the same molecule?
A: 100%

Q: And the pest or weed control at 250 g/ha [2, 8]?
A: 100%

Q: And the pest or weed control at 250 g/ha (Lolium perenne (LOLPE); [9])?
A: 100%

Q: And the pest or weed control at 250 g/ha (Lolium perenne (LOLPE); [10])?
A: 100%

Q: With `Cc1cc(C)c(C2C(=O)CC(CCNc3ncc(Cl)cn3)C2=O)c(C)c1` (stereo not drawn) [Compound A125] as the molecule, how does the pest or weed control at 250 g/ha [1, 3] read?
A: 90%

Q: What about the pest or weed control at 250 g/ha [1, 4] of the same molecule?
A: 90%

Q: What about the pest or weed control at 250 g/ha (Avena fatua (AVEFA); [5]) of the same molecule?
A: 90%

Q: And the pest or weed control at 250 g/ha (Avena fatua (AVEFA); [6])?
A: 80%

Q: And the pest or weed control at 250 g/ha [2, 7]?
A: 100%

Q: What about the pest or weed control at 250 g/ha [2, 8] of the same molecule?
A: 90%

Q: What about the pest or weed control at 250 g/ha (Lolium perenne (LOLPE); [9]) of the same molecule?
A: 100%

Q: And the pest or weed control at 250 g/ha (Lolium perenne (LOLPE); [10])?
A: 90%

Q: What does the source list for `Cc1cc(-c2ncc(Cl)cn2)cc(C)c1C1C(=O)CC(CCNC(=O)C2=NOC(C)(C)C2)C1=O` (stereo not drawn) [Compound A118]?
A: pest or weed control at 250 g/ha [1, 3]: 100%; pest or weed control at 250 g/ha [1, 4]: 100%; pest or weed control at 250 g/ha (Avena fatua (AVEFA); [5]): 100%; pest or weed control at 250 g/ha (Avena fatua (AVEFA); [6]): 90%; pest or weed control at 250 g/ha [2, 7]: 100%; pest or weed control at 250 g/ha [2, 8]: 90%; pest or weed control at 250 g/ha (Lolium perenne (LOLPE); [9]): 100%; pest or weed control at 250 g/ha (Lolium perenne (LOLPE); [10]): 90%

Q: How did the pest or weed control at 250 g/ha [1, 3] turn out when `Cc1cc(C)c(C2C(=O)CC(CCNc3ncc(Br)cn3)C2=O)c(C)c1` (stereo not drawn) [Compound A126, 4-[2-[(5-bromopyrimidin-2-yl)amino]ethyl]-2-(2,4,6-trimethylphenyl)cyclopentane-1,3-dione] was run?
A: 90%

Q: What about the pest or weed control at 250 g/ha [1, 4] of the same molecule?
A: 80%

Q: And the pest or weed control at 250 g/ha (Avena fatua (AVEFA); [5])?
A: 90%

Q: What about the pest or weed control at 250 g/ha (Avena fatua (AVEFA); [6]) of the same molecule?
A: 100%

Q: And the pest or weed control at 250 g/ha [2, 7]?
A: 90%

Q: And the pest or weed control at 250 g/ha [2, 8]?
A: 80%

Q: And the pest or weed control at 250 g/ha (Lolium perenne (LOLPE); [9])?
A: 90%

Q: And the pest or weed control at 250 g/ha (Lolium perenne (LOLPE); [10])?
A: 90%
